Our source for the IC50 values is patent publication US20260356856A1, “KRAS G12S AND G12C INHIBITORS” (MIRATI THERAPEUTICS, INC., priority 2023, published 2026).

One assay addresses T1, KRas G12C (Homo sapiens, UniProt P01116, G12C).
T1 construct: Biotinylated KRas (corresponding to amino acids 1-169, produced at Accelegan Inc.); biotin (biotinylated); purchased Accelegan Inc
The assay can be described thus: KRas binding assay, TR-FRET displacement of Cy5 labelled tracer. The note with it: 60-minute incubation at room temperature, 1% DMSO, pH 7.5. Put shortly: (§1)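 Biotinylated KRas (residues 1-169) was incubated with tracer, terbium-streptavidin and compound at 1% DMSO final in 50 mM HEPES pH 7.5 containing 5 mM MgCl2, 0.005% Tween-20 and 1 mM DTT. The plate was read after 60 min at room temperature, and percent-of-control data were fit to a 4-parameter IC50 equation.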
On the technique in general: TR-FRET usually uses a lanthanide donor and a delayed reading to cut background.

The next assay addresses T2, KRas G12S (Homo sapiens, UniProt P01116, G12S).
T2 construct: Biotinylated KRas (corresponding to amino acids 1-169, produced at Accelegan Inc.); biotin (biotinylated); purchased Accelegan Inc
The description is as above. The note with it: 60-minute incubation at room temperature, 1% DMSO, pH 7.5. Put shortly:
as §1

A further assay deals with T3, KRas WT (Homo sapiens, UniProt P01116).
T3 construct: Biotinylated KRas (corresponding to amino acids 1-169, produced at Accelegan Inc.); biotin (biotinylated); purchased Accelegan Inc
T3 sequence (P01116 1-169 isoform P01116-2): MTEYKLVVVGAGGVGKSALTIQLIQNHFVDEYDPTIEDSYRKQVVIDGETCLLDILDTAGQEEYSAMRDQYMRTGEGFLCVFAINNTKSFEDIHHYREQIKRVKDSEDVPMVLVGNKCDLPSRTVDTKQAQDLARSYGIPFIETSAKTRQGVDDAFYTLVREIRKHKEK
The assay is described as above. The note with it: 60-minute incubation at room temperature, 1% DMSO, pH 7.5. Put shortly:
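IC50 came from fitting POC values with a four-parameter equation. Signal was read after one hour at room temperature. Protein was biotin-tagged KRas 1-169 captured by terbium streptavidin, with compound in 1% DMSO (final).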

The target of assay [1] is T4, KRas-mediated phosphorylation of ERK in MKN1 cells (Homo sapiens, UniProt P01116).
T4 construct: pERK HTRF read-out
T4 sequence (P01116 1-188 isoform P01116-2): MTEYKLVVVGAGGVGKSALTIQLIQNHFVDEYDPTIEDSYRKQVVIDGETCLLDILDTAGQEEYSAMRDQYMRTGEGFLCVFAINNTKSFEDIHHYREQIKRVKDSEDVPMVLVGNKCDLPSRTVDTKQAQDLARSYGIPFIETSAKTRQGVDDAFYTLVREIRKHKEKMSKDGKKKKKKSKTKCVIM
The assay can be described thus: Inhibition of KRas-mediated phosphorylation of ERK (HTRF), MKN1 cells. It counts as cell-based. The following applies: MKN1 cells (KRas WT); HTRF pERK; 3 h incubation. How it is done:
Inhibition of KRas Phosphorylation of ERK (HTRF) by Exemplary Compounds of Formula (Ia) or (Ib)
Cisbio HTRF Advanced pERK Assay Catalog #64AERPEH • Cells: MKN1, PSN1 • Procedure: • 1. Day 1: Seed 6,000 cells/well −25 μl/well in 384-well white solid bottom plate; RPM1_10% FBS. Incubate overnight at 37 °C/5% CO2. • 2.

The target in assay [2] is T5, KRas-mediated phosphorylation of ERK in A549 cells (Homo sapiens, UniProt P01116, G12S).
T5 construct: pERK HTRF read-out
T5 sequence (P01116 1-188 isoform P01116-2 G12S): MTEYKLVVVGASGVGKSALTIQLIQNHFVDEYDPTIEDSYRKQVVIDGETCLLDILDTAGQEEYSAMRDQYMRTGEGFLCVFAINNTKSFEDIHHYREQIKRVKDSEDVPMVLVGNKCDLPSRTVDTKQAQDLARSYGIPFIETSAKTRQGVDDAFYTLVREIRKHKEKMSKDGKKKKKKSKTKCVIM
The assay can be described thus: Inhibition of KRas-mediated phosphorylation of ERK (HTRF), A549 cells. It counts as cell-based. The note with it: HTRF pERK, 3 h incubation.

Broadly, the IC50 is the concentration that gives 50% inhibition. Low values mean higher potency, high ones lower potency.

T1 sequence (P01116 1-169 isoform P01116-2 G12C): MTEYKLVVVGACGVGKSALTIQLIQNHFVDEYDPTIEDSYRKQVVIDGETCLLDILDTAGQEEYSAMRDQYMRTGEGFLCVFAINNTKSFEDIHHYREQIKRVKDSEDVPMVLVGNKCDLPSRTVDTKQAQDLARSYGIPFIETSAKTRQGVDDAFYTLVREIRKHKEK
T2 sequence (P01116 1-169 isoform P01116-2 G12S): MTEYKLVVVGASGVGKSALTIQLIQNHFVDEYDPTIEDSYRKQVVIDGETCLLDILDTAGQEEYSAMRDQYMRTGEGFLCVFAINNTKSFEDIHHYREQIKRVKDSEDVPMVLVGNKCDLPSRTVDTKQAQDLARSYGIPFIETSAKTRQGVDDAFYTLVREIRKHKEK

`CCc1c(F)ccc2cc(O)cc(N3CCc4c(nc(OC[C@@]56CCCN5C[C@H](F)C6)nc4N(C)CCC(=O)n4ccc(C)n4)C3)c12` [Example 196, 3-((7-(8-ethyl-7-fluoro-3-hydroxynaphthalen-1-yl)-2-(((2R,7aS)-2-fluorotetrahydro-1H-pyrrolizin-7a(5H)-yl)methoxy)-5,6,7,8-tetrahydropyrido[3,4-d]pyrimidin-4-yl)(methyl)amino)-1-(3-methyl-1H-pyrazol-1-yl) propan-1-one]: the concentration for half-maximal inhibition (IC50) at KRas G12C is 40 nM; on KRas G12S, 45 nM; at KRas WT, 55 nM; in assay [1] it was 2200 nM; in assay [2] it was greater than 10000 nM.

Consider `CCc1c(F)ccc2cc(O)cc(-c3c(F)cc4c(N5CCCC(C(=O)n6ccc(C)n6)CC5)nc(OC[C@@]56CCCN5C[C@H](F)C6)nc4c3F)c12` (stereo partly drawn) [Example 174, (1-(7-(8-ethyl-7-fluoro-3-hydroxynaphthalen-1-yl)-6,8-difluoro-2-(((2R,7aS)-2-fluorotetrahydro-1H-pyrrolizin-7a(5H)-yl)methoxy)quinazolin-4-yl)azepan-4-yl)(3-methyl-1H-pyrazol-1-yl)methanone], for which the 50% inhibitory concentration (IC50) on KRas G12C was 1120 nM; at KRas G12S, 182 nM; at KRas WT, 1120 nM; in assay [1], 3000 nM; in assay [2], 507 nM.

`CCc1c(F)ccc2cc(O)cc(-c3ncc4c(NC[C@@H]5[C@H](C(=O)n6ccc(C)n6)C5(C)C)nc(OC[C@@]56CCCN5C[C@H](F)C6)nc4c3F)c12` [Example 109, ((1S,3R)-3-(((7-(8-ethyl-7-fluoro-3-hydroxynaphthalen-1-yl)-8-fluoro-2-(((2R,7aS)-2-fluorotetrahydro-1H-pyrrolizin-7a(5H)-yl)methoxy)pyrido[4,3-d]pyrimidin-4-yl)amino)methyl)-2,2-dimethylcyclopropyl)(3-methyl-1H-pyrazol-1-yl)methanone]: the IC50 on KRas G12C was determined as 134 nM; at KRas G12S, 99 nM; at KRas WT, 73 nM; in assay [1], 316 nM; in assay [2] it was 1920 nM.

For the molecule `Cc1ccn(C(=O)C2CCCCCN(c3nc(OC[C@@]45CCCN4C[C@H](F)C5)nc4c(F)c(-c5ccc(F)c6sc(N)c(C#N)c56)c(Cl)cc34)C2)n1` (stereo partly drawn) [Example 173, 2-amino-4-(6-chloro-8-fluoro-2-(((2R,7aS)-2-fluorotetrahydro-1H-pyrrolizin-7a(5H)-yl)methoxy)-4-(3-(3-methyl-1H-pyrazole-1-carbonyl)azocan-1-yl)quinazolin-7-yl)-7-fluorobenzo[b]thiophene-3-carbonitrile], the IC50 turned out to be 29 nM at KRas G12C; 27 nM on KRas G12S; 31 nM on KRas WT; 54 nM in assay [1]; 772 nM in assay [2].

Turning to `CCc1c(F)ccc2cc(O)cc(-c3ncc4c(N5C[C@H]6C[C@@H](C5)[C@H](C(=O)n5ccc(C)n5)C6)nc(OC[C@@]56CCCN5C[C@H](F)C6)nc4c3F)c12` [Example 100, ((1S,5R,6R)-3-(7-(8-ethyl-7-fluoro-3-hydroxynaphthalen-1-yl)-8-fluoro-2-(((2R,7aS)-2-fluorotetrahydro-1H-pyrrolizin-7a(5H)-yl)methoxy)pyrido[4,3-d]pyrimidin-4-yl)-3-azabicyclo[3.2.1]octan-6-yl)(3-methyl-1H-pyrazol-1-yl)methanone], the IC50 was 4840 nM at KRas G12C; 4720 nM at KRas G12S; 7690 nM at KRas WT; greater than 10000 nM in assay [1]; greater than 10000 nM in assay [2].

Consider `CCc1c(F)ccc2cc(O)cc(N3CCc4c(nc(OC[C@@]56CCCN5C[C@H](F)C6)nc4N4CCCCC(C(=O)n5ccc(C)n5)CC4)C3)c12` (stereo partly drawn) [Example 148, (1-(7-(8-ethyl-7-fluoro-3-hydroxynaphthalen-1-yl)-2-(((2R,7aS)-2-fluorotetrahydro-1H-pyrrolizin-7a(5H)-yl)methoxy)-5,6,7,8-tetrahydropyrido[3,4-d]pyrimidin-4-yl)azocan-4-yl)(3-methyl-1H-pyrazol-1-yl)methanone], for which the half-maximal inhibitory concentration (IC50) was 19 nM on KRas G12C; 10 nM at KRas G12S; 147 nM at KRas WT; 108 nM in assay [1]; 140 nM in assay [2].

On to `CCc1c(F)ccc2cc(O)cc(-c3ncc4c(N5CC6CC(C(=O)n7ccc(C)n7)C6C5)nc(OC[C@@]56CCCN5C[C@H](F)C6)nc4c3F)c12` (stereo partly drawn) [Example 98, (3-(7-(8-ethyl-7-fluoro-3-hydroxynaphthalen-1-yl)-8-fluoro-2-(((2R,7aS)-2-fluorotetrahydro-1H-pyrrolizin-7a(5H)-yl)methoxy)pyrido[4,3-d]pyrimidin-4-yl)-3-azabicyclo[3.2.0]heptan-6-yl)(3-methyl-1H-pyrazol-1-yl)methanone], for which the half-maximal inhibitory concentration (IC50) at KRas G12C came out at 73 nM; at KRas G12S, 20 nM; on KRas WT, 178 nM; in assay [1], 2490 nM; in assay [2], 61 nM.

For `CCc1c(F)ccc2cc(O)cc(-c3ncc4c(N5CCC(COC)(C(=O)n6ccc(C)n6)C5)nc(OC[C@@]56CCCN5C[C@H](F)C6)nc4c3F)c12` (stereo partly drawn) [Example 95, (1-(7-(8-ethyl-7-fluoro-3-hydroxynaphthalen-1-yl)-8-fluoro-2-(((2R,7aS)-2-fluorotetrahydro-1H-pyrrolizin-7a(5H)-yl)methoxy)pyrido[4,3-d]pyrimidin-4-yl)-3-(methoxymethyl)pyrrolidin-3-yl)(3-methyl-1H-pyrazol-1-yl)methanone], the IC50 at KRas G12C was 257 nM; at KRas G12S, 1600 nM; at KRas WT, 1080 nM; in assay [1], greater than 10000 nM; in assay [2] it was 4220 nM.

Regarding `Cc1ccn(C(=O)[C@H]2C[C@H]2CNc2nc(OC[C@@]34CCCN3C[C@H](F)C4)nc3c(F)c(-c4ccc(F)c5sc(N)c(C#N)c45)c(Cl)cc23)n1` [Example 182, 2-amino-4-(6-chloro-8-fluoro-2-(((2R,7aS)-2-fluorotetrahydro-1H-pyrrolizin-7a(5H)-yl)methoxy)-4-((((cis)-2-(3-methyl-1H-pyrazole-1-carbonyl)cyclopropyl)methyl)amino)quinazolin-7-yl)-7-fluorobenzo[b]thiophene-3-carbonitrile], the half-maximal inhibitory concentration (IC50) was 24 nM at KRas G12C; 38 nM on KRas G12S; 35 nM on KRas WT; 247 nM in assay [1]; 179 nM in assay [2].

Turning to `CCc1c(F)ccc2cc(O)cc(-c3ncc4c(N5C[C@H]6CC[C@@]6(C(=O)n6ccc(C)n6)C5)nc(OC[C@@]56CCCN5C[C@H](F)C6)nc4c3F)c12` [Example 105, ((1S,5S)-3-(7-(8-ethyl-7-fluoro-3-hydroxynaphthalen-1-yl)-8-fluoro-2-(((2R,7aS)-2-fluorotetrahydro-1H-pyrrolizin-7a(5H)-yl)methoxy)pyrido[4,3-d]pyrimidin-4-yl)-3-azabicyclo[3.2.0]heptan-1-yl)(3-methyl-1H-pyrazol-1-yl)methanone], the IC50 is 35 nM at KRas G12C; 50 nM at KRas G12S; 58 nM at KRas WT; 517 nM in assay [1]; greater than 10000 nM in assay [2].

As for `Cc1ccn(C(=O)C23CC(CNc4nc(OC[C@@]56CCCN5C[C@H](F)C6)nc5c(F)c(-c6ccc(F)c7sc(N)c(C#N)c67)c(Cl)cc45)(C2)C3)n1` [Example 184, 2-amino-4-(6-chloro-8-fluoro-2-(((2R,7aS)-2-fluorotetrahydro-1H-pyrrolizin-7a(5H)-yl)methoxy)-4-(((3-(3-methyl-1H-pyrazole-1-carbonyl)bicyclo[1.1.1]pentan-1-yl)methyl)amino)quinazolin-7-yl)-7-fluorobenzo[b]thiophene-3-carbonitrile], the concentration for half-maximal inhibition (IC50) at KRas G12C was determined as 5 nM; at KRas G12S, 6 nM; on KRas WT, 27 nM; in assay [1], 1500 nM; in assay [2] it was 115 nM.

With `CCc1c(F)ccc2cc(O)cc(-c3ncc4c(N5C[C@@H]6[C@H](C5)[C@H]6C(=O)n5ccc(C)n5)nc(OC[C@@]56CCCN5C[C@H](F)C6)nc4c3F)c12` [Example 118, ((1R,5S,6S)-3-(7-(8-ethyl-7-fluoro-3-hydroxynaphthalen-1-yl)-8-fluoro-2-(((2R,7aS)-2-fluorotetrahydro-1H-pyrrolizin-7a(5H)-yl)methoxy)pyrido[4,3-d]pyrimidin-4-yl)-3-azabicyclo[3.1.0]hexan-6-yl)(3-methyl-1H-pyrazol-1-yl)methanone], the IC50 was found to be 591 nM on KRas G12C; 437 nM at KRas G12S; 873 nM at KRas WT; 5750 nM in assay [1]; 7840 nM in assay [2].

Regarding `N#Cc1c(N)sc2c(F)ccc(-c3c(Cl)cc4c(N5CCN(S(=O)(=O)n6cnnc6)CC5)nc(OC[C@@]56CCCN5C[C@H](F)C6)nc4c3F)c12` [Example 187, 4-(4-(4-((4H-1,2,4-triazol-4-yl)sulfonyl)piperazin-1-yl)-6-chloro-8-fluoro-2-(((2R,7aS)-2-fluorotetrahydro-1H-pyrrolizin-7a(5H)-yl)methoxy)quinazolin-7-yl)-2-amino-7-fluorobenzo[b]thiophene-3-carbonitrile], the IC50 on KRas G12C is 40 nM; on KRas G12S, 33 nM; on KRas WT it was 11 nM; in assay [1] it was 127 nM; in assay [2], 1360 nM.
